Reference: patent publication US6395787B1, “Ocular hypotensive lipids” (Allergan Sales, Inc., priority 2000, dated 2002)

What was measured:
human FP receptor = human FP receptor (Homo sapiens, UniProt P43088); experiment: Total inositol phosphate accumulation, HEK-293 cells with recombinant human FP receptor; format: cell-based; design: expressed in transfected cells; conditions: for % maximal total inositol phosphate accumulation mean χ ± SEM: reference 17-phenyl PGF2α 10^−6 M
Protocol: HEK-293 cells were grown in DMEM with 10% fetal bovine serum (FBS), 250 μg ml^−1 G418 (Life Technologies) and 200 μg ml^−1 gentamicin or penicillin/streptomycin. […] For transfection, the cells were grown to 50-60% confluency on 10 cm plates. The plasmid pCEP4 incorporating cDNA inserts for the human FP receptor (20 μg) was added to 500 μl of 250 mM CaCl2. HEPES buffered saline×2 (2×HBSS, 280 mM NaCl, 20 mM HEPES acid, 1.5 mM Na2 HPO4, pH 7.05-7.12) was then added dropwise to a […], with continuous vortexing at room temperature. After 30 min, 9 ml DMEM were added to the mixture. The DNA/DMEM/calcium phosphate mixture was then added to the cells, which had been previously rinsed with 10 ml phosphate buffered saline (PBS). The cells were then incubated for 5 h. at 37° C. in humidified 95% air/5% CO2. The calcium phosphate solution was then removed and the cells were treated with 10% glycerol in DMEM for 2 min. The glycerol solution was then replaced by DMEM with 10% fetal bovine serum (FBS). The cells were incubated overnight and the medium was replaced by DMEM/10% FBS containing 250 μg ml^−1 G418 and penicillin/streptomycin. The following day hygromycin B was added to a final concentration of 200 μg ml^−1.
Receptor-mediated phosphoinositide (PI) hydrolysis was determined by measuring the accumulation of total inositol phosphates (IP) in cells preincubated with ^3H-myoinositol. Stable cell lines of HEK 293 cells expressing human or cat FP receptors were plated in 10 cm dishes (10^6 cells per dish in DMEM with 10% FBS). The following day, the cells were incubated with 18 μCi myo-[2 ^3H] inositol (Amersham; […]) in 6 ml of DMEM with 10% FBS for 24 hours at 37° C. The cells were then rinsed twice with phosphate buffered saline (PBS), incubated for 5 min with 1 ml of trypsin-EDTA, and suspended in 10 ml DMEM containing 25 mM HEPES buffer. Cells were pelleted at 1000 rpm and resuspended in DMEM/25 mM HEPES containing 10 mM LiCl for 10 minutes. Aliquots of 200 μl cell suspension were incubated with 50 μl drug for 30 minutes at 37° C. (duplicate determination), and agonist stimulation was terminated with a 750 μl mixture of chloroform:methanol:4N HCl (100:200:2), followed by addition of 250 μl of chloroform and 0.5 N HCl for extraction of inositol phosphates. A 750 μl volume of the aqueous layer was loaded on columns packed with 0.5 ml of Dowex AG 1-X8 anion-exchange resin (formate form, 100-200 mesh; BioRad) to separate radiolabeled components. The elution procedure consisted of three 3 ml washes with 5 mM inositol, then two elutions with 750 μl of 1.3 M ammonium formate with 0.1 M formic acid. The eluate was mixed with 10 ml Aquasol scintillation fluid (Packard Instrument Co.) and total [^3H] inositol phosphates was determined by a liquid scintillation counter.

[1] = target: recombinant feline FP receptor (Felis catus, UniProt A0ABI7XJ69); experiment: Total inositol phosphate accumulation, HEK-293 cells with recombinant feline FP receptor; format: cell-based, cat; conditions: read-out: E.C.50, total inositol phosphate accumulation
Protocol: Ten days after transfection, hygromycin B resistant clones were individually selected and transferred to a separate well on a 24 well plate. At confluence each clone was transferred to one well of a 6 well plate, and then expanded in a 10 cm dish. Cells were maintained under continuous hygromycin selection until use. The stable cat FP receptor transfectants were similarly prepared using […]. Again cells were grown to 50-60% confluency on 10 cm plates and the plasmid pCEP4, incorporating cDNA inserts for the feline FP receptor, was transfected using lipofectin. Hygromycin B selection was started 48 hr post-transfection. Eight days after transfection, hygromycin B resistant clones were selected and transferred to 24 well plates. Ca^2+ signaling studies on recombinant cat and human FP receptors were performed in an identical manner to that described for the CRL 1497 cell studies.
Receptor-mediated phosphoinositide (PI) hydrolysis was determined by measuring the accumulation of total inositol phosphates (IP) in cells preincubated with ^3H-myoinositol. Stable cell lines of HEK 293 cells expressing human or cat FP receptors were plated in 10 cm dishes (10^6 cells per dish in DMEM with 10% FBS). […] The eluate was mixed with 10 ml Aquasol scintillation fluid (Packard Instrument Co.) and total [^3H] inositol phosphates was determined by a liquid scintillation counter.

human FP receptor, sequence (P43088 whole entry): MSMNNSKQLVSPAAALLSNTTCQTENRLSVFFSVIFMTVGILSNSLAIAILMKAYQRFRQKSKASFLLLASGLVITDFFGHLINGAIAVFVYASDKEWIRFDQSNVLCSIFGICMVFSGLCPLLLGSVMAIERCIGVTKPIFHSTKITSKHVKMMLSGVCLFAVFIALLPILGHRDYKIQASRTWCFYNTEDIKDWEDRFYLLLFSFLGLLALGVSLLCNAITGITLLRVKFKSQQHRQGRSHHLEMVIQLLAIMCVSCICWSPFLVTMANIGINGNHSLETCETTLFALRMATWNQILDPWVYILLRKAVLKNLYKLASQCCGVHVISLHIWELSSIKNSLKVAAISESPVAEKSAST
recombinant feline FP receptor, sequence (A0ABI7XJ69 entry or part of it): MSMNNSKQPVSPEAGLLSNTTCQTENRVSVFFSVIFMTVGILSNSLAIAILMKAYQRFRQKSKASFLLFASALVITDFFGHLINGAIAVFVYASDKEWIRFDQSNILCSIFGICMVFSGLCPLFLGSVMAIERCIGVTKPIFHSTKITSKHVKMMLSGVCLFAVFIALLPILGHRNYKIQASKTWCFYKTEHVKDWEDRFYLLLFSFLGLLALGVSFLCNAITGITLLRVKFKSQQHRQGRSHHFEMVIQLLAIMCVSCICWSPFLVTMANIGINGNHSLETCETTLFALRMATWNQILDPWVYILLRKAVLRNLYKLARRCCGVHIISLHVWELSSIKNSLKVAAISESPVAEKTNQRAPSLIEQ

% maximal total inositol phosphate accumulation mean χ ± SEM (human FP receptor; 10^−5 M): 85.0 ± 1.9% | % maximal total inositol phosphate accumulation mean χ ± SEM (human FP receptor; 10^−6 M): 48.4 ± 3.3% | % maximal total inositol phosphate accumulation mean χ ± SEM (human FP receptor; 10^−7 M): 10.0 ± 1.6% | % maximal total inositol phosphate accumulation mean χ ± SEM (human FP receptor; 10^−8 M): 0.3 ± 0.6% | EC50 (human FP receptor; HEK-293 cells, recombinant human FP receptor, read-out: E.C.50, total inositol phosphate accumulation): 1 µM | EC50 [1]: 0.524 µM
SMILES: CCCCC[C@H](O)/C=C/[C@@H]1[C@@H](C/C=C\CCCC(=O)NCCO)[C@@H](O)C[C@H]1O [PGF2α 1-ethanolamide, (5Z,8α,9α,11α,13E,15S)-9,11,15-trihydroxy-N-(2-hydroxyethyL)prosta-5,13-dien-1-amide]
